Assay results reported in patent publication US8513303B2, “Antimicrobial agent” (De Montfort University, priority 2007, dated 2013).

Assays:
[1] = test system: Bacillus subtilis subsp. spizizenii ATCC 6633 spore; assay: Testing for antimicrobial activity against spores (sporicidal suspension test); format: cell-based
Procedure: Spore suspensions were prepared based on the general principles of European quantitative suspension tests for evaluation of sporicidal activity (BS EN14347:2005: chemical disinfectants and antiseptics, basic sporicidal activity, test method and requirements (phase 1, step 1), London: British Standards Institute). Tryptone soya broth was seeded with spores from a previous batch and incubated at 37° C. to obtain an exponential growth phase culture. 10 mL of this culture was transferred into a Roux flask containing manganese-sulfate sporulation agar so that the inoculum came into contact with all of the surface of the agar. The Roux flasks were incubated at 37° C. for 2 days and for 21 days at 30° C., cultures were recovered, checked for sporulation and stored in water at 5° C. Sporicidal activity was then assessed using the method outlined previously (but with half the volume/weight of hydrogen peroxide, water, organism and catalyst) using 5 to 7.5% w/v hydrogen peroxide (see testing antimicrobial activity section). After neutralisation, a 1 mL sample was added to 12 to 15 mL of melted tryptone soya agar cooled to 45° C. Petri dishes were incubated for a minimum of 4 days and a maximum of 7 days at 37° C. and the log10 reduction in bacterial spore numbers calculated.

[2] = test system: Pseudomonas aeruginosa ATCC 15442; assay: Antimicrobial activity of PAN catalyst under buffered neutral pH conditions at room temperature and 35° C.; format: cell-based; details: 0.5% w/v H2O2; for log reduction: 35° C., held at neutral pH; for Mean log10 reduction in CFU/ml: room temperature, buffered at neutral pH
Procedure: Experiments were conducted using the method outlined previously (see testing antimicrobial activity section), but hydrogen peroxide and catalyst were prepared in phosphate buffer solution. Experiments were carried out at room temperature and 35° C.

OO [Example H2O2, hydrogen peroxide]
Mean log10 reduction in CFU/ml ([1]; 5% w/v H2O2, no air, 10 min): 1.02 (0.03) log10 CFU/ml | Mean log10 reduction in CFU/ml ([1]; 5% w/v H2O2, no air, 30 min): 1.26 (0.12) log10 CFU/ml | Mean log10 reduction in CFU/ml ([1]; 5% w/v H2O2, no air, 60 min): 1.90 (0.09) log10 CFU/ml | Mean log10 reduction in CFU/ml ([1]; 5% w/v H2O2, no air, 120 min): 3.45 (0.27) log10 CFU/ml | Mean log10 reduction in CFU/ml ([1]; 5% w/v H2O2, no air, 120 min, listed as hydrogen peroxide): 3.45 log10 CFU/ml | Mean log10 reduction in CFU/ml ([1]; 7.5% w/v H2O2, no air, 10 min): 0.04 (0.11) log10 CFU/ml | Mean log10 reduction in CFU/ml ([1]; 7.5% w/v H2O2, no air, 30 min): 0.19 (0.08) log10 CFU/ml | Mean log10 reduction in CFU/ml ([1]; 7.5% w/v H2O2, no air, 60 min): 0.95 (0.01) log10 CFU/ml | Mean log10 reduction in CFU/ml ([1]; 7.5% w/v H2O2, no air, 120 min): 4.22 (0.71) log10 CFU/ml | Mean log10 reduction in CFU/ml ([1]; 7.5% w/v H2O2, no air, 120 min, listed as hydrogen peroxide): 4.22 log10 CFU/ml | log reduction ([2]; air, 20 min): 3.13 log | log reduction ([2]; air, 40 min): 3.41 log | log reduction ([2]; no air, 50 min): 3.90 log | Mean log10 reduction in CFU/ml ([2]; air 2.5 L/min, 10 min): 1.37 log10 CFU/ml | Mean log10 reduction in CFU/ml ([2]; air 2.5 L/min, 20 min): 1.46 log10 CFU/ml | Mean log10 reduction in CFU/ml ([2]; air 2.5 L/min, 30 min): 1.71 log10 CFU/ml | Mean log10 reduction in CFU/ml ([2]; air 2.5 L/min, 40 min): 1.61 log10 CFU/ml | Mean log10 reduction in CFU/ml ([2]; air 2.5 L/min, 50 min): 1.75 log10 CFU/ml | Mean log10 reduction in CFU/ml ([2]; air 2.5 L/min, 60 min): 1.90 log10 CFU/ml | Mean log10 reduction in CFU/ml ([2]; no air, 10 min): 1.08 log10 CFU/ml | Mean log10 reduction in CFU/ml ([2]; no air, 20 min): 1.49 log10 CFU/ml | Mean log10 reduction in CFU/ml ([2]; no air, 30 min): 1.69 log10 CFU/ml | Mean log10 reduction in CFU/ml ([2]; no air, 40 min): 1.79 log10 CFU/ml | Mean log10 reduction in CFU/ml ([2]; no air, 50 min): 1.92 log10 CFU/ml | Mean log10 reduction in CFU/ml ([2]; no air, 60 min): 1.85 log10 CFU/ml
